Source: patent US20110092544A1, “FUNGICIDAL PYRIDINES” (E.I. DU PONT DE nemours and company, priority 2008, published 2011)

Experiments:
Format in all cases: in vivo
[1] = tested on: Erysiphe graminis f. sp. tritici; experiment: Test A: wheat powdery mildew, preventive spray on wheat seedlings, visual disease rating; settings: 200 ppm, 100 = 100% disease control, 0 = no control; for pest or weed control at 200 ppm: Blumeria graminis, 192 h
Procedure, shortened: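 Acetone/water (50/50) suspension with 250 ppm surfactant sprayed to run-off on wheat seedlings (200 ppm ≈ 500 g/ha); inoculated next day with E. graminis spore dust. Incubated 8 days at 20° C, then visually rated 0–100% disease control versus untreated controls; tests at 200 ppm or 40 ppm.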

[2] = tested on: Puccinia recondite f. sp. tritici; experiment: Test B: wheat leaf rust, preventive spray on wheat seedlings, visual disease rating; settings: 200 ppm, 100 = 100% disease control, 0 = no control; for pest or weed control at 200 ppm: 192 h
Procedure, shortened: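 Wheat seedlings were sprayed to run-off with compound suspension, 200 ppm (≈500 g/ha) or 40 ppm where marked, containing surfactant in acetone/water. Inoculation with Puccinia recondita spores followed one day later, then 24 h in saturated humidity at 20° C and 7 days at 20° C. Disease control was rated visually, 0–100% versus controls.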

[3] = tested on: Septoria tritici; experiment: Test C: wheat leaf blotch, preventive spray on wheat seedlings, visual disease rating; settings: 200 ppm, 100 = 100% disease control, 0 = no control; for pest or weed control at 200 ppm: Zymoseptoria tritici, 504 h
Procedure, shortened: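 Wheat seedlings sprayed to run-off with compound in acetone/water plus 250 ppm surfactant at 200 ppm (≈500 g/ha), or 40 ppm where marked; inoculated with Septoria tritici next day. Held saturated at 20 °C for 48 h, then 19 days at 20 °C; disease control rated visually 0–100 versus controls.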

[4] = tested on: Septoria nodorum; experiment: Test D: wheat glume blotch, preventive spray on wheat seedlings, visual disease rating; settings: 200 ppm, 100 = 100% disease control, 0 = no control; for pest or weed control at 200 ppm: Parastagonospora nodorum, 216 h
Procedure, shortened: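 Compounds in 3% acetone, then 50/50 acetone–water with 250 ppm Trem 014, sprayed to run-off at 200 ppm (500 g/ha; some at 40 ppm) one day before spore inoculation. Held 48 h saturated at 20 °C, then 7 days at 20 °C; visual rating as % disease control vs untreated (0–100).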

[5] = tested on: Alternaria solani; experiment: Test E: tomato early blight, preventive spray on tomato seedlings, visual disease rating; settings: 200 ppm, 100 = 100% disease control, 0 = no control; for pest or weed control at 200 ppm: Alternaria solani, 168 h
Procedure, shortened: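 Seedlings sprayed to run-off with compound in acetone/water plus 250 ppm Trem 014 (200 ppm ≈ 500 g/ha), inoculated with spores next day. Held 48 h saturated at 27 °C, then 5 days at 20 °C; visual rating 0–100% disease control relative to controls.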

[6] = tested on: Botrytis cinerea; experiment: Test F: tomato botrytis, preventive spray on tomato seedlings, visual disease rating; settings: 200 ppm, 100 = 100% disease control, 0 = no control; for pest or weed control at 200 ppm: Botrytis cinerea, 120 h
Procedure, shortened: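 Tomato seedlings sprayed to run-off with compound suspended in acetone/water (50/50) plus 250 ppm Trem 014, at 200 ppm (≈500 g/ha) or 40 ppm where marked. Inoculated next day with B. cinerea spores, 48 h saturated atmosphere at 20 °C, then 3 days at 24 °C. Visual rating, 0–100% disease control relative to controls.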

[7] = tested on: Rhizoctonia oryzae; experiment: Test G: turf brown patch, preventive spray on creeping bent grass seedlings, visual disease rating; settings: 200 ppm, 100 = 100% disease control, 0 = no control; for pest or weed control at 200 ppm: Waitea circinata, in Agrostis stolonifera, 120 h
Description: (§1) General protocol for preparing test suspensions for Tests A-H: The test compounds were first dissolved in acetone in an amount equal to 3% of the final volume and then suspended at the desired concentration (in ppm) in acetone and purified water (50/50 mix) containing 250 ppm of the surfactant Trem® 014 (polyhydric alcohol esters). The resulting test suspensions were then used in tests A-H. Spraying a 200 ppm test suspension to the point of run-off on the test plants was the equivalent of a rate of 500 g/ha.
The test suspension was sprayed to the point of run-off on creeping bent grass seedlings. The following day the seedlings were inoculated with a spore suspension of Rhizoctonia oryzae (the causal agent of turf brown patch) and incubated in a saturated atmosphere at 27° C. for 48 h, and then moved to a growth chamber at 27° C. for 3 days, after which time disease ratings were visually made.
(§2) Results for Tests A-H are given in Table A. In the table, a rating of 100 indicates 100% disease control and a rating of 0 indicates no disease control (relative to the controls). A dash (-) indicates no test results. All results are for compounds tested at 200 ppm except where the compound number is followed by “*” which indicates the compound was tested at 40 ppm.

[8] = tested on: Plasmopara viticola; experiment: Test H: grape downy mildew, spray after inoculation of grape seedlings, visual disease rating; settings: 200 ppm, 100 = 100% disease control, 0 = no control; for pest or weed control at 200 ppm: Plasmopara viticola, 192 h
Description: as §1
Grape seedlings were inoculated with a spore suspension of Plasmopara viticola (the causal agent of grape downy mildew) and incubated in a saturated atmosphere at 20° C. for 24 h. After a short drying period, the test suspension was sprayed to the point of run-off on the grape seedlings, and then moved to a growth chamber at 20° C. for 6 days, after which time the test units were placed back into a saturated atmosphere at 20° C. for 24 h. Upon removal, disease ratings were visually made.
as §2

Row | Compound | Test A rating (% disease control) [1] | Test B rating (% disease control) [2] | Test C rating (% disease control) [3] | Test D rating (% disease control) [4] | Test E rating (% disease control) [5] | Test F rating (% disease control) [6] | Test G rating (% disease control) [7] | Test H rating (% disease control) [8] | pest or weed control at 200 ppm [1] | pest or weed control at 200 ppm [2] | pest or weed control at 200 ppm [3] | pest or weed control at 200 ppm [4] | pest or weed control at 200 ppm [5] | pest or weed control at 200 ppm [6] | pest or weed control at 200 ppm [7] | pest or weed control at 200 ppm [8]
1 | CCOC(=O)c1cnc(C)c(-c2ccccc2)c1-c1cc(OC)c(OC)c(OC)c1 [Compound 6] | 0% | 0% | 1% | 0% | 0% | 89% | 0% | 0% |  |  |  |  |  |  |  | 
2 | COc1cc(OC)cc(-c2c(-c3ccccc3F)cnc(C)c2-c2ccccc2)c1 [Compound 32] | 98% | 96% | 99% | 0% | 59% | 99% | 99% | 0% |  |  |  |  |  |  |  | 
3 | CCOC(=O)c1cnc(C)c(-c2ccccc2)c1-c1cc(OC)ccc1Cl [Compound 7] | 97% | 74% | 52% | 0% | 0% | 98% | 97% | 0% |  |  |  |  |  |  |  | 
4 | CNC(=O)c1cnc(C)c(-c2ccccc2)c1-c1cc(OC)cc(OC)c1 [Compound 9] | 94% | 0% | 86% | 0% | 99% | 37% | 0% | 0% |  |  |  |  |  |  |  | 
5 | COc1cc(OC)cc(-c2c(-c3ccc(F)cc3)cnc(C)c2-c2ccccc2)c1 [Compound 36] | 65% | 0% | 93% | 0% | 30% | 94% | 14% | 0% |  |  |  |  |  |  |  | 
6 | COc1cc(OC)cc(-c2c(-c3ccccc3)c(C)nc(C)c2-c2ccc(F)cc2)c1 [Compound 22] | 78% | 55% | 95% | 0% | 0% | 99% | 0% | 0% |  |  |  |  |  |  |  | 
7 | COc1cc(OC)cc(-c2c(C(C)C)cnc(C)c2-c2ccc(F)cc2)c1 [Compound 19, 4-(3,5-dimethoxyphenyl)-3-(4-fluorophenyl)-2-methyl-5-(1-methylethyl)pyridine] |  |  |  |  |  |  |  |  | 99% | 99% | 100% | 0% | 99% | 99% | 99% | 0%
8 | COc1cc(OC)cc(-c2c(-c3ccccc3F)c[n+]([O-])c(C)c2-c2ccc(F)cc2)c1 [Compound 39, 4-(3,5-dimethoxyphenyl)-5-(2-fluorophenyl)-3-(4-fluorophenyl)-2-methylpyridine 1-oxide] |  |  |  |  |  |  |  |  | 98% | 100% | 100% | 100% | 100% | 94% | 35% | 0%
